Where “and” joins values, the source holds several entries; their conditions need not be identical. Equal entries are not always repeated. Where two headings read alike, the source gives them in different places.
How the values were obtained:
[1] = tested on: tetanus toxoid; design: species or system BFD1 (C57B1/6X DBA/2) female mice; settings: mouse, in vivo
[2] = tested on: influenza A/HK/68; assay type: in vivo, ICR mice
[3] = tested on: TNF-α; assay: Cytokine induction in human whole blood ex vivo culture: TNF-α (ELISA); assay type: cell-based; settings: 4 hr, Table 19
Description: (§1) AGP compounds were solubilized in 10% EtOH-water and diluted to various concentrations. Fifty μl of each dilution were added to 450 μl of whole human blood. Controls were treated with culture media (RPMI). The reaction mixture was incubated at 37° C. for 4 hr with constant mixing on a rotator. Sterile PBS (1.5 ml) was added to the reaction mixture, the cells were centrifuged and the supernatents removed for cytokine testing. The concentration of TNF-α and IL-1β in each supernatent was determined using immunoassay ELISA kits from R&D Systems.

[4] = tested on: IL-1β; assay: Cytokine induction in human whole blood ex vivo culture: IL-1β (ELISA); assay type: cell-based; settings: 4 hr, Table 19
Description: as §1

[5] = tested on: tetanus toxoid; settings: mouse, in vivo, sc
[6] = tested on: E.G7 (OVA) cells; settings: s.c. 25 μg OVA in AGP preparation, spleen cells 21 days later
[7] = tested on: influenza A/HK/68; design: species or system ICR mice; settings: mouse, in vivo
[8] = tested on: hepatitis B surface antigen (HBsAg); assay: Serum anti-HBsAg antibody titers after intranasal HBsAg + AGP-AF (ELISA); assay type: in vivo, BALB/c mice; settings: for Anti HBsAg Titer^−1 IgG1 / Anti HBsAg Titer^−1 IgG2a: K = 10^3
[9] = tested on: hepatitis B surface antigen (HBsAg); assay: Vaginal wash anti-HBsAg antibody after intranasal HBsAg + AGP-AF; assay type: in vivo, BALB/c mice; settings: 10 days after the booster immunization; intranasal HBsAg + 10 μg AGP-AF
Source text: Vaginal samples were collected 10 days after the booster immunization and assayed for anti-HBsAg antibody.

[10] = Fever response in rabbits (pyrogenicity); assay type: in vivo; settings: 10 ug/kg; cumulative rise ≥1.5 degree in three rabbits is considered pyrogenic
Description: The AGP compounds were also evaluated for their tendency to induce a fever response in rabbits. Each compound was formulated in 10% (v/v) ethanol/water solution at 100 mg/ml, then diluted with D5W to the desired concentration. The material was injected at 3 ml/kg body weight into 3 rabbits. The rise in core temperature of the rabbits was recorded.

[11] = tested on: hepatitis B surface antigen (HBsAg); settings: for % Cytotoxicity (d16, post 2°): HBsAg + 10 μg AGP-AF intranasally; for % Cytotoxicity (d8, post 3°): intranasal HBsAg + 10 μg AGP-AF
[12] = tested on: ovalbumin; assay: Stimulation of antiovalbumin antibody production; assay type: in vivo, BDF1 female mice; settings: 50 μg AGP + 50 μg ovalbumin; second immunization day 21; bled 14 days after second injection
Description: BDF1 female mice (8 per group) were immunized with 0.2 ml of emulsions containing 50 μg of the AGPs +50 μg of ovalbumin. A second immunization was administered 21 days post primary. Each mouse was bled 14 days after the second injection.

[13] = tested on: influenza A/HK/68; settings: mouse, in vivo
[14] = 25 μg AGP + 1 HAU FI-Flu in 0.2% TEoA, once, bled day 14, Table 11
[15] = day 22 post 2°, HBsAg + 10 μg AGP-AF intranasally
[16] = serum, day 21 post 3°, intranasal HBsAg + 10 μg AGP-AF

CCCCCCCCCCCC(=O)O[C@H](CCCCCCCCCCC)CC(=O)N[C@H]1[C@H](OC[C@H](NC(=O)C[C@@H](CCCCCCCCCCC)OC(=O)CCCCCCCCCCC)C(=O)O)O[C@H](CO)[C@@H](OP(=O)(O)O)[C@@H]1OC(=O)C[C@@H](CCCCCCCCCCC)OC(=O)CCCCCCCCCCC.CCN(CC)CC [B12, N-[(R)-3-Dodecanoyloxytetradecanoyl]-o-[2-Deoxy-4-O-phosphono-2-[(R)-3-dodecanoyloxytetradecanoylamino]-3-O-[(R)-3-dodecanoyloxytetradecanoyl]-β-D-glucopyranosyl]-L-serine Triethylammonium Salt]
IgG1 T/C [1]: 90.08 and 141.22 and 145.21 and 81.12 and 84.11 | IgG1 Titer [1]: 165,486 and 259,429 and 266,743 and 149,029 and 154,514 | Total Ig T/C [1]: 326.02 and 368.55 and 403.98 and 248.06 and 489.92 | Total Ig Titer [1]: 42,057 and 47,543 and 52,114 and 32,000 and 63,200 | Titer^−1 IgG1 [2, 14]: 200 | Titer^−1 IgG2a [2, 14]: 100 | Titer^−1 IgG2b [2, 14]: 200 | Titer^−1 Total IgG [2, 14]: 200 | Percent Survival ([2]; […], mortality 21 days, Table 11): 0% | TNF-α ([3]; Dosage 1000 ng/ml): 863 pg/mL | TNF-α ([3]; Dosage 5000 ng/ml): 957 pg/mL | TNF-α ([3]; Dosage 10,000 ng/ml): 1017 pg/mL | IL-1β ([4]; Dosage 1000 ng/ml): 175 pg/mL | IL-1β ([4]; Dosage 5000 ng/ml): 153 pg/mL | IL-1β ([4]; Dosage 10,000 ng/ml): 135 pg/mL | Anti-tetanus toxoid IgG2a T/C [5]: 139.4 | Anti-tetanus toxoid IgG2a titer [5]: 2370 | Anti-tetanus toxoid IgG2b T/C [5]: 149 | Anti-tetanus toxoid IgG2b titer [5]: 9840 | Anti-tetanus toxoid IgM T/C [5]: 3.1 | Anti-tetanus toxoid IgM titer [5]: 4800 | % Cytotoxicity ([6]; E:T 12.5:1): 4% | % Cytotoxicity ([6]; E:T 25:1): 7% | % Cytotoxicity ([6]; E:T 50:1): 13%

3-Hydroxy-(S)-2-[(R)-3-decanoyloxytetradecanoylamino]propyl 2-Deoxy-4-O-phosphono-2-[(R)-3-decanoyloxytetradecanoylamino]-3-O-[(R)-3-decanoyloxytetradecanoyl]-β-D-glucopyranoside Triethylammonium Salt [B5]
IgG Titer-1 post 1° [7]: 1600 | IgG Titer-1 post 2° [7]: >102,400 | Percent Survival post 1° [7]: 60% | Percent Survival post 2° [7]: 90% | Percent Survival ([2]; mouse, in vivo): 44% | Titer−1 IgG1 ([2]; mouse, in vivo): 200 | Titer−1 IgG2a ([2]; mouse, in vivo): 50 | Titer−1 IgG2b ([2]; mouse, in vivo): 400 | Titer−1 Total IgG ([2]; mouse, in vivo): 800 | Anti HBsAg Titer^−1 IgA [8, 15]: 3,200 | Anti HBsAg Titer^−1 IgG1 [8, 15]: 256K | Anti HBsAg Titer^−1 IgG2a [8, 15]: 500K | Anti HBsAg Titer^−1 IgG1 [8, 16]: 500K | Anti HBsAg Titer^−1 IgG2a [8, 16]: 1000K | Anti HBsAg Titer^−1 IgA [8, 16]: 12,800 | Vaginal Wash Anti-HBsAg Titer^−1 IgA [9]: 1600 | Vaginal Wash Anti-HBsAg Titer^−1 IgG [9]: 1600 | PYROGENICITY Total Rise ° C., 3 rabbits [10]: 4.1 °C | % Cytotoxicity ([6]; E:T 12.5:1): 11% | % Cytotoxicity ([6]; E:T 25:1): 18% | % Cytotoxicity ([6]; E:T 50:1): 28% | % Cytotoxicity (d16, post 2°) ([11]; E/T 6.25:1): 11% | % Cytotoxicity (d8, post 3°) ([11]; E/T 6.25:1): 12% | % Cytotoxicity (d16, post 2°) ([11]; E/T 12.5:1): 20% | % Cytotoxicity (d8, post 3°) ([11]; E/T 12.5:1): 19% | % Cytotoxicity (d16, post 2°) ([11]; E/T 25:1): 30% | % Cytotoxicity (d8, post 3°) ([11]; E/T 25:1): 30% | % Cytotoxicity (d16, post 2°) ([11]; E/T 50:1): 43% | % Cytotoxicity (d8, post 3°) ([11]; E/T 50:1): 44%

3-[(R)-3-Tetradecanoyloxytetradecanoylamino]propyl 2-Deoxy-4-O-phosphono-3-O-[(R)-3-tetradecanoyoxytetradecanoyl]-2-[(R)-3-tetradecanoyloxytetradecanoylamino])-β-D-glucopyranoside Triethylammonium Salt [B21]
Anti-ovalbumin IgG1 T/C [12]: 0.6 | Anti-ovalbumin IgG1 Titer [12]: 1000 | Anti-ovalbumin IgG2a T/C [12]: 0.1 | Anti-ovalbumin IgG2a Titer [12]: 25 | Anti-ovalbumin IgG2b T/C [12]: 0.8 | Anti-ovalbumin IgG2b Titer [12]: 200 | Anti-ovalbumin IgM T/C [12]: 1.3 | Anti-ovalbumin IgM Titer [12]: 250 | Anti-ovalbumin Total Ig T/C [12]: 0.5 | Anti-ovalbumin Total Ig Titer [12]: 113 | Anti-tetanus toxoid IgG1 T/C [5]: 2.23 | Anti-tetanus toxoid IgG1 Titer [5]: 480,000 | Anti-tetanus toxoid IgG2a T/C [5]: 5.83 | Anti-tetanus toxoid IgG2a Titer [5]: 29,600 | Anti-tetanus toxoid IgG2b T/C [5]: 6.07 | Anti-tetanus toxoid IgG2b Titer [5]: 174,400 | Anti-tetanus toxoid IgM T/C [5]: 5.50 | Anti-tetanus toxoid IgM Titer [5]: 8,800 | Anti-tetanus toxoid Total IgG T/C [5]: 4.71 | Anti-tetanus toxoid Total IgG Titer [5]: 30,400 | Percent Survival [13]: 40% | Titer−1 IgG1 [13]: 800 | Titer−1 IgG2a [13]: 100 | Titer−1 IgG2b [13]: 1600 | Titer−1 Total IgG [13]: 6400

3-Hydroxy-(S)-2-[(R)-3-undecanoyloxytetradecanoylamino]propyl 2-Deoxy-4-O-phosphono-2-[(R)-3-undecanoyloxytetradecanoylamino]-3-O-[(R)-3-undecanoyloxytetradecanoyl]-β-D-glucopyranoside Triethylammonium Salt [B4]
IgG Titer-1 post 1° [7]: 800 | IgG Titer-1 post 2° [7]: 25,600 | Percent Survival post 1° [7]: 50% | Percent Survival post 2° [7]: 70% | Percent Survival ([2]; mouse, in vivo): 60% | Titer−1 IgG1 ([2]; mouse, in vivo): 400 | Titer−1 IgG2a ([2]; mouse, in vivo): 100 | Titer−1 IgG2b ([2]; mouse, in vivo): 1600 | Titer−1 Total IgG ([2]; mouse, in vivo): 3200 | Anti HBsAg Titer^−1 IgA [8, 15]: 6,400 | Anti HBsAg Titer^−1 IgG1 [8, 15]: 500K | Anti HBsAg Titer^−1 IgG2a [8, 15]: 1000K | Anti HBsAg Titer^−1 IgG1 [8, 16]: 1000K | Anti HBsAg Titer^−1 IgG2a [8, 16]: 2000K | Anti HBsAg Titer^−1 IgA [8, 16]: 25,600 | Vaginal Wash Anti-HBsAg Titer^−1 IgA [9]: 6400 | Vaginal Wash Anti-HBsAg Titer^−1 IgG [9]: 1600 | PYROGENICITY Total Rise ° C., 3 rabbits [10]: 3.4 °C | % Cytotoxicity ([6]; E:T 12.5:1): 60% | % Cytotoxicity ([6]; E:T 25:1): 66% | % Cytotoxicity ([6]; E:T 50:1): 72% | % Cytotoxicity (d16, post 2°) ([11]; E/T 6.25:1): 7% | % Cytotoxicity (d8, post 3°) ([11]; E/T 6.25:1): 5% | % Cytotoxicity (d16, post 2°) ([11]; E/T 12.5:1): 9% | % Cytotoxicity (d8, post 3°) ([11]; E/T 12.5:1): 9% | % Cytotoxicity (d16, post 2°) ([11]; E/T 25:1): 17% | % Cytotoxicity (d8, post 3°) ([11]; E/T 25:1): 15% | % Cytotoxicity (d16, post 2°) ([11]; E/T 50:1): 28% | % Cytotoxicity (d8, post 3°) ([11]; E/T 50:1): 23%

CCCCCCCCCCCCCC(=O)O[C@H](CCCCCCCCCCC)CC(=O)N[C@H]1[C@H](OCCN(CC(=O)O)C(=O)C[C@@H](CCCCCCCCCCC)OC(=O)CCCCCCCCCCCCC)O[C@H](CO)[C@@H](OP(=O)(O)O)[C@@H]1OC(=O)C[C@@H](CCCCCCCCCCC)OC(=O)CCCCCCCCCCCCC.CCN(CC)CC [B27, N-(Carboxymethyl)-N-[(R)-3-tetradecanoyloxytetradecanoyl]-2-aminoethyl 2-Deoxy-4-O-phophono-2-[(R)-3-tetradecanoyloxytetradecanoylamino]-3-O-[(R)-3-tetradecanoyloxytetradecanoyl]-β-d-glucopyranoside Triethylammonium Salt]
IgG1 T/C Ratio [1]: 1.6 | IgG1 Titer [1]: 10,400 | IgG2a T/C Ratio [1]: 12.0 | IgG2a Titer [1]: 900 | IgG2b T/C Ratio [1]: 11.6 | IgG2b Titer [1]: 9,000 | IgM T/C Ratio [1]: 4.0 | IgM Titer [1]: 11,200 | Total Ig T/C Ratio [1]: 3.2 | Total Ig Titer [1]: 6,800 | Anti-ovalbumin IgG1 T/C [12]: 0.8 | Anti-ovalbumin IgG1 Titer [12]: 1275 | Anti-ovalbumin IgG2a T/C [12]: 0.1 | Anti-ovalbumin IgG2a Titer [12]: 38 | Anti-ovalbumin IgG2b T/C [12]: 0.5 | Anti-ovalbumin IgG2b Titer [12]: 113 | Anti-ovalbumin IgM T/C [12]: 1.6 | Anti-ovalbumin IgM Titer [12]: 300 | Anti-ovalbumin Total Ig T/C [12]: 0.6 | Anti-ovalbumin Total Ig Titer [12]: 138 | PYROGENICITY Total Rise ° C., 3 rabbits [10]: 3.9 °C | % Cytotoxicity ([6]; E:T 12.5:1): 5% | % Cytotoxicity ([6]; E:T 25:1): 9% | % Cytotoxicity ([6]; E:T 50:1): 17%

Source: patent US7541020B2, “Aminoalkyl glucosaminide phosphate compounds and their use as adjuvants and immunoeffectors” (priority 1997, dated 2009)
